Reference: the supplement of paper PMC11208160

Assay: recombinant UMI read abundance after kanamycin selection (control-corrected) (log10(CPM+1)); higher = more efficient recombination; extreme values may be limits of the assay; sequences stand for … in AGTGCAGAGAAAATCGGCCAGTTTTCTCTGCCTGCAGTCCGCATGCCGTGGGACCCCTTGGGTTCTAACCTGTTGCCTAGATTTATGCAGCGGACTGCCTTTCTCCCAAAGTGATAAACCGG…AGGTTGGTTTCACT; site = the 11-nt donor
Method in brief: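 Values, expressed as log10(CPM+1), derive from recombinant UMI counts converted to CPM, averaged across replicates and scaled by control-derived factors. Plating was with IPTG (0.07 mM) plus kanamycin or unselected, two replicates each. The screen pooled donor and donor-binding-loop pairs for the IS621 bridge recombinase in Escherichia coli.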
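Further: IS621 bridge recombinase in Escherichia coli cells against a fixed T5 target plasmid.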

First: AGGCCGACATGGACCGGTTTTCCCGGTAATCCGTATTTGCA (site AGGCCGACTTG)
Second: AGGCCTGCATGGACCGGTTTTCCCGGTAATCCGTATTTGAA (site AGGCCTGCTTT)
The “recombinant UMI read abundance (log10)” value of the first is higher: 1.81 for the first, 0.996 for the second.

“AGGCTTCCATGGACCGGTTTTCCCGGTAATCCGTATTTGCG (site AGGCTTCCTCG)” and “AGGGAGACATGGACCGGTTTTCCCGGTAATCCGTATTTGCA (site AGGAAGACTTG)” are within 0.2 log units of each other in “recombinant UMI read abundance (log10)” value: 0.745 for the first, 0.796 for the second.

First: AGGGAGACATGGACCGGTTTTCCCGGTAATCCGTATTTGCA (site AGGCAGACTTG)
Second: AGGGAGACATGGACCGGTTTTCCCGGTAATCCGTATTTGCA (site AGGGAGACTTG)
The “recombinant UMI read abundance (log10)” value of the first is lower: 0.473 for the first, 2.5 for the second.

First: AGGGAGACATGGACCGGTTTTCCCGGTAATCCGTATTTGCA (site AGGTAGACTTG)
Second: AGGGATCCATGGACCGGTTTTCCCGGTAATCCGTATTTGTT (site AGGGATCCTAA)
The “recombinant UMI read abundance (log10)” value of the first is lower: 0.162 for the first, 0.662 for the second.

Going from “AGGGATCCATGGACCGGTTTTCCCGGTAATCCGTATTTGTT (site CGGAATCCTAA)” to “AGGGCTACATGGACCGGTTTTCCCGGTAATCCGTATTTGCG (site AGGGCTACTCG)”, the “recombinant UMI read abundance (log10)” value rises from 0 to 1.42.

First: AGGGTGACATGGACCGGTTTTCCCGGTAATCCGTATTTGCA (site AGGAAGACTTG)
Second: AGGGTGACATGGACCGGTTTTCCCGGTAATCCGTATTTGCA (site AGGGTGACTTG)
The “recombinant UMI read abundance (log10)” value of the first is lower: 0.666 for the first, 2.63 for the second.

“AGGTACCCATGGACCGGTTTTCCCGGTAATCCGTATTTGTG (site AGGTACCCTCA)” and “AGGTACCCATGGACCGGTTTTCCCGGTAATCCGTATTTGTG (site AGGTCCCCTCA)” are within 0.2 log units of each other in “recombinant UMI read abundance (log10)” value: 0.0796 for the first, 0.0158 for the second.

“AGGTACCCATGGACCGGTTTTCCCGGTAATCCGTATTTGTG (site AGGTGCCCTCA)” and “AGGTACCCATGGACCGGTTTTCCCGGTAATCCGTATTTGTG (site AGGTTCCCTCA)” are within 0.2 log units of each other in “recombinant UMI read abundance (log10)” value: 0.0127 for the first, 0.0248 for the second.

First: AGGTACGCATGGACCGGTTTTCCCGGTAATCCGTATTTGAG (site AGGTACGCTCT)
Second: AGGTAGACATGGACCGGTTTTCCCGGTAATCCGTATTTGCA (site AGGAAGACTTG)
The “recombinant UMI read abundance (log10)” value of the first is higher: 1.72 for the first, 1.23 for the second.

Going from “AGGTAGACATGGACCGGTTTTCCCGGTAATCCGTATTTGCA (site AGGCAGACTTG)” to “AGGTAGACATGGACCGGTTTTCCCGGTAATCCGTATTTGCA (site AGGGAGACTTG)”, the “recombinant UMI read abundance (log10)” value falls from 2.47 to 0.688.

First: AGGTAGACATGGACCGGTTTTCCCGGTAATCCGTATTTGCA (site AGGTAGACTTG)
Second: AGGTAGCCATGGACCGGTTTTCCCGGTAATCCGTATTTGCA (site AGGAAGACTTG)
The “recombinant UMI read abundance (log10)” value of the first is higher: 2.88 for the first, 0 for the second.

First: AGGTAGCCATGGACCGGTTTTCCCGGTAATCCGTATTTGCA (site AGGTAGCCTTG)
Second: AGGTAGCCATGGACCGGTTTTCCCGGTAATCCGTATTTGTA (site AGGTAGCCTTA)
The “recombinant UMI read abundance (log10)” value of the first is lower: 0 for the first, 0.215 for the second.

Going from “AGGTAGGCATGGACCGGTTTTCCCGGTAATCCGTATTTGGC (site AAGTAGGCTGC)” to “AGGTAGGCATGGACCGGTTTTCCCGGTAATCCGTATTTGGC (site ACGTAGGCTGC)”, the “recombinant UMI read abundance (log10)” value rises from 0.588 to 1.87.

First: AGGTAGGCATGGACCGGTTTTCCCGGTAATCCGTATTTGGC (site AGGTAGGCTGC)
Second: AGGTAGGCATGGACCGGTTTTCCCGGTAATCCGTATTTGGC (site ATGTAGGCTGC)
The “recombinant UMI read abundance (log10)” value of the first is higher: 2.65 for the first, 0.775 for the second.

Going from “AGGTGCGCATGGACCGGTTTTCCCGGTAATCCGTATTTGTA (site AGGTGCGCTTA)” to “AGGTGGACATGGACCGGTTTTCCCGGTAATCCGTATTTGCA (site AGGAAGACTTG)”, the “recombinant UMI read abundance (log10)” value falls from 1.81 to 1.46.

Going from “AGGTGGACATGGACCGGTTTTCCCGGTAATCCGTATTTGCA (site AGGTGGACTTG)” to “AGGTGGACATGGACCGGTTTTCCCGGTAATCCGTATTTGTA (site AGGTGGACTTA)”, the “recombinant UMI read abundance (log10)” value falls from 2.73 to 2.2.

First: AGGTGGCCATGGACCGGTTTTCCCGGTAATCCGTATTTGCC (site AGGTGGCCTGG)
Second: AGGTTCACATGGACCGGTTTTCCCGGTAATCCGTATTTGCC (site AGGTTCACTGG)
The “recombinant UMI read abundance (log10)” value of the first is lower: 0 for the first, 2.11 for the second.

“AGGTTCCCATGGACCGGTTTTCCCGGTAATCCGTATTTGGG (site AGGTTCCCTCA)” and “AGGTTCCCATGGACCGGTTTTCCCGGTAATCCGTATTTGGG (site AGGTTCCCTCC)” are within 0.2 log units of each other in “recombinant UMI read abundance (log10)” value: 0.0189 for the first, 0.0153 for the second.

“AGGTTCCCATGGACCGGTTTTCCCGGTAATCCGTATTTGGG (site AGGTTCCCTCG)” and “AGGTTCCCATGGACCGGTTTTCCCGGTAATCCGTATTTGGG (site AGGTTCCCTCT)” are within 0.2 log units of each other in “recombinant UMI read abundance (log10)” value: 0.0155 for the first, 0.0453 for the second.

Compared with “AGTAAAGCATGGACCGGTTTTCCCGGTAATCCGTATTTGCA (site AGTAAAGCTTG)”, “AGTAACGCATGGACCGGTTTTCCCGGTAATCCGTATTTGGT (site AGTAACGCTAC)” is lower in “recombinant UMI read abundance (log10)” value: 1.97 for the first, 1.7 for the second.

First: AGTAAGACATGGACCGGTTTTCCCGGTAATCCGTATTTGAA (site AGGAAGACTTG)
Second: AGTAAGACATGGACCGGTTTTCCCGGTAATCCGTATTTGAA (site AGTAAGACTTT)
The “recombinant UMI read abundance (log10)” value of the first is lower: 0 for the first, 1.27 for the second.

Compared with “AGTAAGACATGGACCGGTTTTCCCGGTAATCCGTATTTGTC (site AGTAAGACTGA)”, “AGTAAGCCATGGACCGGTTTTCCCGGTAATCCGTATTTGCA (site AGGAAGACTTG)” is lower in “recombinant UMI read abundance (log10)” value: 1.36 for the first, 0 for the second.

Compared with “AGTAAGCCATGGACCGGTTTTCCCGGTAATCCGTATTTGCA (site AGTAAGCCTTG)”, “AGTAAGGCATGGACCGGTTTTCCCGGTAATCCGTATTTGCT (site AGAAAGGCTAG)” is higher in “recombinant UMI read abundance (log10)” value: 0.539 for the first, 1.39 for the second.

Going from “AGTAAGGCATGGACCGGTTTTCCCGGTAATCCGTATTTGCT (site AGCAAGGCTAG)” to “AGTAAGGCATGGACCGGTTTTCCCGGTAATCCGTATTTGCT (site AGGAAGGCTAG)”, the “recombinant UMI read abundance (log10)” value falls from 1.21 to 0.32.

First: AGTAAGGCATGGACCGGTTTTCCCGGTAATCCGTATTTGCT (site AGTAAGGCTAG)
Second: AGTAAGTCATGGACCGGTTTTCCCGGTAATCCGTATTTGAA (site AGTAAGTCTTT)
The “recombinant UMI read abundance (log10)” value of the first is higher: 2.75 for the first, 2.1 for the second.

Going from “AGTAGCACATGGACCGGTTTTCCCGGTAATCCGTATTTGAG (site AGTAGCACTCT)” to “AGTAGGACATGGACCGGTTTTCCCGGTAATCCGTATTTGCA (site AGGAAGACTTG)”, the “recombinant UMI read abundance (log10)” value rises from 1.24 to 1.45.

First: AGTAGGACATGGACCGGTTTTCCCGGTAATCCGTATTTGCA (site AGTAGGACTTG)
Second: AGTAGGGCATGGACCGGTTTTCCCGGTAATCCGTATTTGAG (site AGTAGGGCTCT)
The “recombinant UMI read abundance (log10)” value of the first is higher: 2.91 for the first, 1.41 for the second.

First: AGTCAAGCATGGACCGGTTTTCCCGGTAATCCGTATTTGAA (site AGTCAAGCTTT)
Second: AGTCCAACATGGACCGGTTTTCCCGGTAATCCGTATTTGTA (site AGTCCAACTTA)
The “recombinant UMI read abundance (log10)” value of the first is higher: 1.39 for the first, 0.694 for the second.

“AGTCCAACATGGACCGGTTTTCCCGGTAATCCGTATTTGTA (site CGTCCAACTTA)” and “AGTCCAACATGGACCGGTTTTCCCGGTAATCCGTATTTGTA (site GGTCCAACTTA)” are within 0.2 log units of each other in “recombinant UMI read abundance (log10)” value: 0 for the first, 0.172 for the second.

Going from “AGTCCAACATGGACCGGTTTTCCCGGTAATCCGTATTTGTA (site TGTCCAACTTA)” to “AGTCCTTCATGGACCGGTTTTCCCGGTAATCCGTATTTGCA (site AGTCCTTCTTG)”, the “recombinant UMI read abundance (log10)” value rises from 0.141 to 1.24.

First: AGTCTACCATGGACCGGTTTTCCCGGTAATCCGTATTTGCT (site AGTCTACCTAG)
Second: AGTGAGACATGGACCGGTTTTCCCGGTAATCCGTATTTGGT (site AATGAGACTAC)
The “recombinant UMI read abundance (log10)” value of the first is lower: 0 for the first, 0.439 for the second.

Compared with “AGTGAGACATGGACCGGTTTTCCCGGTAATCCGTATTTGGT (site ACTGAGACTAC)”, “AGTGAGACATGGACCGGTTTTCCCGGTAATCCGTATTTGGT (site AGTGAGACTAC)” is higher in “recombinant UMI read abundance (log10)” value: 0.312 for the first, 1.21 for the second.

Going from “AGTGAGACATGGACCGGTTTTCCCGGTAATCCGTATTTGGT (site ATTGAGACTAC)” to “AGTGCAACATGGACCGGTTTTCCCGGTAATCCGTATTTGGC (site AGTGCAACTGC)”, the “recombinant UMI read abundance (log10)” value falls from 0.546 to 0.

Compared with “AGTGGCTCATGGACCGGTTTTCCCGGTAATCCGTATTTGAG (site AGTGGCTCTCT)”, “AGTGGGACATGGACCGGTTTTCCCGGTAATCCGTATTTGGC (site AGTGGGACTGC)” is higher in “recombinant UMI read abundance (log10)” value: 1.27 for the first, 2.85 for the second.

Going from “AGTGTAGCATGGACCGGTTTTCCCGGTAATCCGTATTTGGG (site AGTGTAGCTCC)” to “AGTGTGACATGGACCGGTTTTCCCGGTAATCCGTATTTGTA (site AGTGTGACTTA)”, the “recombinant UMI read abundance (log10)” value rises from 0.00834 to 1.91.

Compared with “AGTGTGTCATGGACCGGTTTTCCCGGTAATCCGTATTTGAC (site AATGTGTCTGT)”, “AGTGTGTCATGGACCGGTTTTCCCGGTAATCCGTATTTGAC (site ACTGTGTCTGT)” is higher in “recombinant UMI read abundance (log10)” value: 0 for the first, 0.812 for the second.

First: AGTGTGTCATGGACCGGTTTTCCCGGTAATCCGTATTTGAC (site AGTGTGTCTGT)
Second: AGTGTGTCATGGACCGGTTTTCCCGGTAATCCGTATTTGAC (site ATTGTGTCTGT)
The “recombinant UMI read abundance (log10)” value of the first is higher: 1.98 for the first, 0 for the second.

In the case of “AGTGTTACATGGACCGGTTTTCCCGGTAATCCGTATTTGCT (site AGTGTTACTAG)”, the “recombinant UMI read abundance (log10)” value is reported as 2.01.
